Test results reported in the NIST ThermoML archive (doi:10.1016/j.jct.2009.05.004).

Assay: mn = molality of the nth substance listed, in mol/kg
Settings: Liquid, Vibrating tube method

[Br-].[Br-].[Zn+2] [zinc bromide] + CCO
Settings	mass density [kg/m3]
333.15 K, 25621 kPa, m1 = 0.3043	825.37
333.15 K, 29810 kPa, m1 = 0.4384	848.46
333.15 K, 29875 kPa, m1 = 1.49	995.4
333.15 K, 29941 kPa, m1 = 0.05681	791.79
333.15 K, 34256 kPa, m1 = 0.3043	832.31
333.15 K, 34920 kPa, m1 = 0.4384	852.42
333.15 K, 34965 kPa, m1 = 1.49	999.47
333.15 K, 39957 kPa, m1 = 1.49	1003.26
333.16 K, 1604 kPa, m1 = 1.887	1020.71
333.16 K, 5024 kPa, m1 = 0.3043	806.15
333.16 K, 10325 kPa, m1 = 0.3043	811.46
333.16 K, 14730 kPa, m1 = 0.4384	835.35
333.16 K, 14913 kPa, m1 = 0.9305	905.9
333.16 K, 15014 kPa, m1 = 0.05681	778.76
333.16 K, 29941 kPa, m1 = 0.3043	828.93
333.16 K, 30014 kPa, m1 = 1.887	1047.6
333.16 K, 35068 kPa, m1 = 0.05681	795.79
333.16 K, 39745 kPa, m1 = 0.3043	836.38
333.16 K, 39787 kPa, m1 = 0.1696	816.47
333.16 K, 39824 kPa, m1 = 0.4384	855.99
333.17 K, 1074 kPa, m1 = 0.4384	821.64
333.17 K, 25080 kPa, m1 = 0.9305	915
333.17 K, 39803 kPa, m1 = 0.9305	926.52
333.17 K, 39921 kPa, m1 = 0.05681	799.36
333.18 K, 9721 kPa, m1 = 0.1696	791.08
333.18 K, 14944 kPa, m1 = 0.1696	796.06
333.18 K, 19908 kPa, m1 = 0.1696	800.57
333.18 K, 19971 kPa, m1 = 1.887	1038.86
333.18 K, 25143 kPa, m1 = 1.887	1043.47
333.18 K, 29806 kPa, m1 = 0.1696	808.92
333.18 K, 34946 kPa, m1 = 0.1696	812.92
333.2 K, 24905 kPa, m1 = 0.1696	804.89
353.12 K, 1215 kPa, m1 = 0.1696	762.79
353.12 K, 4885 kPa, m1 = 0.9305	876.1
353.12 K, 24736 kPa, m1 = 0.4384	827.02
353.12 K, 29724 kPa, m1 = 0.4384	831.58
353.12 K, 34818 kPa, m1 = 0.1696	796.87
353.12 K, 40086 kPa, m1 = 0.9305	910.04
353.13 K, 19976 kPa, m1 = 0.4384	822.41
353.13 K, 29922 kPa, m1 = 1.887	1029.35
353.13 K, 34919 kPa, m1 = 0.9305	905.88
353.13 K, 35245 kPa, m1 = 0.05681	780.23
353.14 K, 5032 kPa, m1 = 0.3043	786.89
353.14 K, 5065 kPa, m1 = 0.05681	750.01
353.14 K, 9866 kPa, m1 = 0.1696	772.71
353.14 K, 9945 kPa, m1 = 1.887	1009.26
353.14 K, 19983 kPa, m1 = 0.1696	783.31
353.14 K, 25841 kPa, m1 = 0.3043	808.62
353.14 K, 34738 kPa, m1 = 1.887	1033.52
353.14 K, 39852 kPa, m1 = 0.3043	820.61
353.15 K, 1306 kPa, m1 = 0.9305	871.91
353.15 K, 1451 kPa, m1 = 0.05681	745.7
353.15 K, 1574 kPa, m1 = 0.3043	782.83
353.15 K, 1687 kPa, m1 = 1.49	948.01
353.15 K, 5032 kPa, m1 = 1.49	951.99
353.15 K, 10024 kPa, m1 = 0.05681	755.67
353.15 K, 10024 kPa, m1 = 1.49	957.68
353.15 K, 10145 kPa, m1 = 0.3043	792.67
353.15 K, 15624 kPa, m1 = 1.49	963.72
353.15 K, 19924 kPa, m1 = 0.05681	766.16
353.15 K, 19957 kPa, m1 = 1.49	968.14
353.15 K, 20412 kPa, m1 = 0.3043	803.4
353.15 K, 25214 kPa, m1 = 1.49	973.21
353.15 K, 29658 kPa, m1 = 1.49	977.25
353.15 K, 29952 kPa, m1 = 0.3043	812.36
353.15 K, 30014 kPa, m1 = 0.05681	775.72
353.15 K, 34984 kPa, m1 = 1.49	981.78
353.15 K, 39958 kPa, m1 = 1.49	985.72
353.15 K, 39984 kPa, m1 = 0.05681	784.05
353.16 K, 4839 kPa, m1 = 0.1696	767.04
353.16 K, 9987 kPa, m1 = 0.9305	881.84
353.16 K, 15412 kPa, m1 = 0.05681	761.52
353.16 K, 15624 kPa, m1 = 0.3043	798.54
353.16 K, 24888 kPa, m1 = 0.1696	788.05
353.16 K, 34658 kPa, m1 = 0.3043	816.41
353.16 K, 34826 kPa, m1 = 0.4384	835.96
353.16 K, 39714 kPa, m1 = 1.887	1037.55
353.17 K, 4861 kPa, m1 = 0.4384	806.08
353.17 K, 14799 kPa, m1 = 0.1696	778.02
353.17 K, 14872 kPa, m1 = 1.887	1014.63
353.17 K, 19935 kPa, m1 = 0.9305	892.23
353.17 K, 24932 kPa, m1 = 0.05681	771.05
353.17 K, 29746 kPa, m1 = 0.1696	792.5
353.17 K, 39702 kPa, m1 = 0.1696	800.82
353.18 K, 9743 kPa, m1 = 0.4384	811.63
353.18 K, 14964 kPa, m1 = 0.9305	887.17
353.18 K, 29738 kPa, m1 = 0.9305	901.43
353.19 K, 1518 kPa, m1 = 0.4384	802.12
353.19 K, 19828 kPa, m1 = 1.887	1019.76
353.19 K, 24834 kPa, m1 = 0.9305	896.96
353.19 K, 39796 kPa, m1 = 0.4384	839.94
353.2 K, 1878 kPa, m1 = 1.887	999.87
353.2 K, 4878 kPa, m1 = 1.887	1003.45
353.2 K, 24815 kPa, m1 = 1.887	1024.64
353.21 K, 14513 kPa, m1 = 0.4384	816.8
373.12 K, 1190 kPa, m1 = 0.4384	780.46
373.12 K, 1697 kPa, m1 = 1.887	977.46
373.12 K, 5014 kPa, m1 = 1.887	981.85
373.12 K, 9878 kPa, m1 = 0.4384	791.75
373.12 K, 29863 kPa, m1 = 0.1696	775.41
373.12 K, 29926 kPa, m1 = 1.887	1010.28
373.12 K, 29956 kPa, m1 = 0.4384	814.15
373.13 K, 4952 kPa, m1 = 0.05681	729.35
373.13 K, 4965 kPa, m1 = 0.1696	746.64
373.13 K, 9897 kPa, m1 = 1.887	988.07
373.13 K, 14946 kPa, m1 = 1.887	994.16
373.13 K, 20065 kPa, m1 = 1.887	1000
373.13 K, 24795 kPa, m1 = 0.4384	808.88
373.13 K, 24847 kPa, m1 = 0.1696	770.29
373.14 K, 1612 kPa, m1 = 0.1696	742.13
